Like-named read-outs stand apart in the source and are kept apart here.
Biological target: T1, human KSP motor domain (KSP(367H)) (Homo sapiens, UniProt P52732)
T1 construct: were used to amplify the motor domain and the neck linker region; made in house; host or cells: E. coli BL21 (DE3), pRSETa vector
T1 sequence (P52732 18-359 limits assumed): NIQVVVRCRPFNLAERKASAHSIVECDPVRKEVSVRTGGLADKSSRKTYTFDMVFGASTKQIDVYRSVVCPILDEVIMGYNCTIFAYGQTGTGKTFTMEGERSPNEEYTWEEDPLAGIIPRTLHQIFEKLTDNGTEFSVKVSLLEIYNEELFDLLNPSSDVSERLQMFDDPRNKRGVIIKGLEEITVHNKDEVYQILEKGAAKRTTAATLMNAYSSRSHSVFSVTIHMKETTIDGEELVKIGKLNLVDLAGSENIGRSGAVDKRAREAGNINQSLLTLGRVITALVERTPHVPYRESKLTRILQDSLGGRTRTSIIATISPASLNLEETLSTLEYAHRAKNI
Assay: Kinesin ATPase In Vitro Assay
Type: biochemical
Method: I. Kinesin ATPase In Vitro Assay
The N-terminal primer 5′-[…] (SEQ.ID.NO.: 1) and the C-terminal primer 5′-[…] […] (SEQ.ID.NO.: 2) were used to amplify the motor domain and the neck linker region. The PCR products were digested with AseI and XhoI, ligated into the NdeI/XhoI digestion product of pRSETa (Invitrogen) and transformed into E. coli BL21 (DE3).
Cells were grown at 37° C. to an OD600 of 0.5. After cooling the culture to room temperature expression of KSP was induced with 100 μM IPTG and incubation was continued overnight. Cells were pelleted by centrifugation and washed once with ice-cold PBS. Pellets were flash-frozen and stored −80° C.
Cell pellets were thawed on ice and resuspended in lysis buffer (50 mM K-HEPES, pH 8.0, 250 mM KCl, 0.1% Tween, 10 mM imidazole, 0.5 mM Mg-ATP, 1 mM PMSF, 2 mM benzimidine, 1× complete protease inhibitor cocktail (Roche)). Cell suspensions were incubated with 1 mg/ml lysozyme and 5 mM β-mercaptoethanol on ice for 10 minutes, followed by sonication (3×30 sec). All subsequent procedures were performed at 4° C. Lysates were centrifuged at 40,000×g for 40 minutes. Supernatants were diluted and loaded onto an SP Sepharose column (Pharmacia, 5 ml cartridge) in buffer A (50 mM K-HEPES, pH 6.8, 1 mM MgCl2, 1 mM EGTA, 10 μM Mg-ATP, 1 mM DTT) and eluted with a 0 to 750 mM KCl gradient in buffer A. Fractions containing KSP were pooled and incubated with Ni-NTA resin (Qiagen) for one hour. The resin was washed three times with buffer B (Lysis buffer minus PMSF and protease inhibitor cocktail), followed by three 15-minute incubations and washes with buffer B. Finally, the resin was incubated and washed for 15 minutes three times with buffer C (same as buffer B except for pH 6.0) and poured into a column. KSP was eluted with elution buffer (identical to buffer B except for 150 mM KCl and 250 mM imidazole). KSP-containing fractions were pooled, made 10% in sucrose, and stored at −80° C.
Microtubules are prepared from tubulin isolated from bovine brain. Purified tubulin (>97% MAP-free) at 1 mg/ml is polymerized at 37° C. in the presence of 10 μM paclitaxel, 1 mM DTT, 1 mM GTP in BRB80 buffer (80 mM K-PIPES, 1 mM EGTA, 1 mM MgCl2 at pH 6.8). The resulting microtubules are separated from non-polymerized tubulin by ultracentrifugation and removal of the supernatant. The pellet, containing the microtubules, is gently resuspended in 10 μM paclitaxel, 1 mM DTT, 50 μg/ml ampicillin, and 5 μg/ml chloramphenicol in BRB80.
The kinesin motor domain is incubated with microtubules, 1 mM ATP (1:1 MgCl2: Na-ATP), and compound at 23° C. in buffer containing 80 mM K-HEPES (pH 7.0), 1 mM EGTA, 1 mM DTT, 1 mM MgCl2, and 50 mM KCl. The reaction is terminated by a 2-10 fold dilution with a final buffer composition of 80 mM HEPES and 50 mM EDTA (or, alternately, with a 1:1 addition of reaction volume to stop buffer(1.8M KCl and 50 mM EDTA)). Free phosphate from the ATP hydrolysis reaction is measured via a quinaldine red/ammonium molybdate assay by adding a 1.5 times volume of quench C (e.g., to a mixture of 40 μl reaction volume+40 μl stop buffer is then added 120 μl quench C). […] Quench C is a 2:1 ratio of quench A:quench B The reaction is incubated for 5-10 minutes at 23° C., and the absorbance of the phospho-molybdate complex is measured at 540 nm.

[1] = kinesin motor domain incubated with microtubules, 1 mM ATP and compound at 23° C., free phosphate by quinaldine red/ammonium molybdate, absorbance 540 nm, read-out: IC50

| SMILES | IC50 [1] | IC50 |
| --- | --- | --- |
| CCS(=O)(=O)C(C)CN1CC(c2cc(F)ccc2F)=C[C@H]1c1ccccc1 (single isomer, unassigned) [38-1] | ≤ 50 µM |  |
| CN(C)C(=O)N1CC(c2cc(F)ccc2Cl)=CC1c1ccccc1 (stereo not shown) [1-6, 4-(2-chloro-5-fluorophenyl)-N,N-dimethyl-2-phenyl-2,5-dihydro-1H-pyrrole-1-carboxamide] | ≤ 50 µM |  |
| NCCS(=O)(=O)N1CC(c2cc(F)ccc2F)=CC1c1ccccc1 (stereo not shown) [7-2, 2-{[4-(2,5-difluorophenyl)-2-phenyl-2,5-dihydro-1H-pyrrol-1-yl]sulfonyl}ethanamine] | ≤ 50 µM |  |
| CN(C)CCS(=O)(=O)N1CC(c2cc(F)ccc2F)=CC1c1ccccc1 (stereo not shown) [8-2, 2-{[4-(2,5-difluorophenyl)-2-phenyl-2,5-dihydro-1H-pyrrol-1-yl]sulfonyl}-N,N-dimethylethanamine] | ≤ 50 µM |  |
| CC(C)(N)C(=O)N1CC(c2cc(F)ccc2F)=CC1c1ccccc1 (stereo not shown) [12-1, 1-[4-(2,5-difluorophenyl)-2-phenyl-2,5-dihydro-1H-pyrrol-1-yl]-2-methyl-1-oxopropan-2-amine] | ≤ 50 µM |  |
| CN(C(=O)N1CC(c2cc(F)ccc2F)=C[C@H]1c1ccccc1)C1CCNCC1 [18-4, (2S)-4-(2,5-Difluorophenyl)-N-methyl-2-phenyl-N-piperidin-4-yl-2,5-dihydro-1H-pyrrole-1-carboxamide] |  | ≤ 50 µM |
| CC(C)(C)OC(=O)N1CC(OS(=O)(=O)C(F)(F)F)=C[C@H]1c1ccccc1 [compound 54, (2S)-tert-butyl 2-phenyl-4-{[(trifluoromethyl)sulfonyl]oxy}-2,5-dihydro-1H-pyrrole-1-carboxylate] | ≤ 50 µM |  |

Further lines, with some results ahead:

| IC50 [1] | SMILES | IC50 |
| --- | --- | --- |
| ≤ 50 µM | CN(C)C(=O)N1CC(c2cc(C(F)(F)F)ccc2F)C=C1c1ccccc1 (stereo not shown) [3-2, 3-[2-fluoro-5-(trifluoromethyl)phenyl]-N,N-dimethyl-5-phenyl-2,3-dihydro-1H-pyrrole-1-carboxamide] |  |
| ≤ 50 µM | CC(=O)N1CC(c2cc(F)ccc2F)=CC1c1ccccc1 (stereo not shown) [9-1, 1-acetyl-4-(2,5-difluorophenyl)-2-phenyl-2,5-dihydro-1H-pyrrole] |  |
| ≤ 50 µM | CC(C)(O)C(=O)N1CC(c2cc(F)ccc2F)=CC1c1ccccc1 (stereo not shown) [11-1, 1-[4-(2,5-difluorophenyl)-2-phenyl-2,5-dihydro-1H-pyrrol-1-yl]-2-methyl-1-oxopropan-2-ol] |  |
| ≤ 50 µM | [C-]#[N+]c1ccc(F)c(C2=CC(c3ccccc3)N(C(=O)N(C)C)C2)c1 (stereo not shown) [13-1, 4-(2-fluoro-5-isocyanophenyl)-N,N-dimethyl-2-phenyl-2,5-dihydro-1H-pyrrole-1-carboxamide] |  |
| ≤ 50 µM | CN(CC1CCNCC1)C(=O)N1CC(c2cc(F)ccc2F)=C[C@H]1c1ccccc1 [18a-6, (2S)-4-(2,5-Difluorophenyl)-N-methyl-2-phenyl-N-(piperidin-4-ylmethyl)-2,5-dihydro-1H-pyrrole-1-carboxamide] |  |
| ≤ 50 µM | CN(C(=O)N1CC(c2cc(Cl)ccc2F)=C[C@H]1c1ccccc1)[C@@H]1CCNC1 [18b-8, (2S)-4-(5-Chloro-2-fluorophenyl)-N-methyl-2-phenyl-N-[(3R)-pyrrolidin-3-yl]-2,5-dihydro-1H-pyrrole-1-carboxamide] |  |

Source: patent US7348440B2, “Mitotic kinesin inhibitors” (Merck & Co., Inc., priority 2002, dated 2008)
